PMC7822874, “Chemoprotective antimalarials identified through quantitative high-throughput screening of Plasmodium blood and liver stage parasites” (Scientific Reports, 2021)
Read-outs that look alike come from different tables or passages of the source.

Assays:
in vitro = details: human
[1] = tested on: P. berghei-ANKA-GFP-LucCON liver stage parasites in HepG2-A16-CD81EGFP cells; assay: P. berghei liver stage Pb-Luc assay, Method 1 (UCSD, 1536-well); format: cell-based, Plasmodium berghei; details: Plasmodium berghei, 48 h, average of 2 wells on a 1536 well plate; for activity at 1 µM: 1 uM (compounds provided at 10 mM); for activity at 3 µM: 3 uM (compounds provided at 10 mM)
[2] = tested on: Plasmodium falciparum Dd2 asexual blood stage parasites; assay: microbe, parasite or virus in culture; set-up: species or system Plasmodium falciparum Dd2 in human erythrocytes; single determination (one 11-point concentration-response curve); details: Plasmodium falciparum, DD2, Erythrocyte, 72 h
[3] = HepG2-A16-CD81EGFP cells, uninfected
[4] = column 11, read-out: Pb-Luc (P. berghei liver stage), % of control, lower concentration, first repeat
[5] = column 12, read-out: Pb-Luc (P. berghei liver stage), % of control, lower concentration, second repeat
[6] = column 8, read-out: Pb-Luc (P. berghei liver stage), % of control, higher concentration, first repeat
[7] = column 9, read-out: Pb-Luc (P. berghei liver stage), % of control, higher concentration, second repeat

Compound | viability at 48 h, 1 µM (in vitro; [3]) | viability at 48 h, 3 µM (in vitro; [3]) | other results
CCOC(=O)C1=C(C)NC2=C(C(=O)CCC2)C1c1cn(Cc2ccc(Cl)cc2Cl)nc1-c1ccccc1 (stereo not shown) [MLS000324811-01] | 106% | 96% | –
NS(=O)(=O)c1cccc(NC(=O)CSc2nn(-c3ccccc3)c(=S)s2)c1 [MLS000339501-01] | 105% | 100% | –
COc1cccc(N2C(N)=NC(N)=NC2(C)C)c1 [MLS000047853-01] | 103% | – | viability at 48 h (in vitro; [3]): 103%
Cc1ccc(C(=O)c2oc3ccccc3c2NC(=O)c2cc(-c3cc(C)ccc3O)[nH]n2)cc1 [MLS000331963-01] | 103% | 102% | –
Cc1ccccc1Nc1nnc(SCc2cc(=O)n3ccsc3n2)s1 [MLS000565690-01] | 107% | 101% | –
C=C(C)CSc1nc2sc3c(c2c(=O)n1-c1ccc(OC)cc1)CCN(C)C3 [MLS001173660-01] | 106% | 105% | –
Cc1cccc(Cl)c1/N=C(\S)N1CCN(c2ccc([N+](=O)[O-])cn2)CC1 [MLS000833563-01] | 95% | 93% | –
Clc1cccc(CN2CCc3c([nH]c4ccccc34)C2)c1Cl [MLS001164092-01] | 104% | – | viability at 48 h (in vitro; [3]): 104%
COc1ccc2cc3cc(C(=O)NCCC(C)C)oc3nc2c1 [MLS001199461-01] | 101% | 101% | –
CCOc1cc(CNC(C)C(O)c2ccccc2)cc(Cl)c1OCC (stereo not shown) [MLS000701716-01] | – | – | viability at 48 h, 1 µM (in vitro): 90%; viability at 48 h, 3 µM (in vitro): 88%
CCOC(=O)Cn1c2c(c(=N)c3c1CCC3)CCCC2 [MLS000702567-01] | – | – | viability at 66 h (in vitro; [3]): 106%
COc1ccc(C2CC(c3cccs3)=NN2C(=O)c2ccco2)cc1OC (stereo not shown) [MLS000769739-01] | – | – | viability at 66 h (in vitro; [3]): 101%
Cc1ccc2nc3c(c(Nc4ccc(O)cc4)c2c1)CCC3 [MLS001196969-01] | 99% | 99% | –
CCOC(=O)N1CCc2c(sc3nc4n(c(=O)c23)N=C(c2ccc(OC)cc2)CS4)C1 [MLS000859689-01] | 99% | 96% | –
CCCN(CCC)C(=O)Cn1ccc(=N)c2ccccc21 [MLS000047676-01] | 95% | 87% | –
CC(C)(C)NC(=O)Cn1ccc(=N)c2ccccc21 [MLS000068809-01] | 99% | 97% | –
C=CCNc1nc(N(c2ccccc2)c2ccccc2)nc(-n2ccnc2)n1 [MLS000045718-01] | – | – | viability at 66 h (in vitro; [3]): 107%
OC(CNCCNc1ncccc1C(F)(F)F)Cn1ccc2ccccc21 (stereo not shown) [MLS000833573-01] | 106% | 96% | –
COc1ccc(-c2c[n+](CC(=O)c3cccs3)c3n2CCC3)cc1 [MLS000333575-01] | – | – | viability (in vitro): 101%
CN(C)S(=O)(=O)Oc1ccsc1C(=O)Nc1cccc(Cl)c1 [MLS000327935-01] | – | – | viability (in vitro): 102%
COc1ccccc1NC(=O)Cn1c(C)ccc(N[S+](=O)([O-])c2ccccc2)c1=O [NCGC00430868-01] | – | – | viability at 66 h (in vitro; [3]): 109%
Cc1ccc(NN=C2C=CC(=O)c3ncccc32)cc1 [MLS000585898-01] | 93% | 88% | –
CCOc1cc(C2NCc3ccccc3-n3cccc32)ccc1O (stereo not shown) [MLS000047991-01] | – | – | viability at 48 h, 1 µM (in vitro): 97%; viability at 48 h, 3 µM (in vitro): 95%
COC(=O)c1cc2sc(Cl)cc2n1CC(=O)Nc1ccc(OC)c(OC)c1OC [MLS000093488-01] | 101% | – | viability at 48 h (in vitro; [3]): 101%
Oc1c(Br)cc(Br)cc1CN1CCN(Cc2ccccc2)CC1 [MLS000530313-01] | – | – | activity at 1 µM [1, 4]: 129%; activity at 1 µM [1, 5]: 112%; activity at 3 µM [1, 6]: 102%; activity at 3 µM [1, 7]: 112%; AC50 ([2]; read-out: AC50): 1060 nM
CC(C)c1ccc(O)c(CN2CCN(c3ccccc3)CC2)c1 [MLS000084718-01] | – | – | activity at 1 µM [1, 4]: 105%; activity at 1 µM [1, 5]: 80%; activity at 3 µM [1, 6]: 97%; activity at 3 µM [1, 7]: 96%; AC50 [2]: 1330 nM
